Twelve molecules from patent publication US12552775B2, “Compounds and uses thereof” (Foghorn Therapeutics Inc., priority 2020, dated 2026) can be followed below.

Experiment [1] has as its target T1, HiBit-BRG1 fusion protein (Homo sapiens, UniProt P51532).
T1 construct: expressed in transfected cells
Description: HiBiT-BRG1 cell-based degradation assay (Nano-Glo HiBiT Lytic Detection, 24 h). The conditions noted are these: stable HeLa cell line expressing HiBit-BRG1 and LgBit, top dose 30 μM, read-out: BRG1 HiBit Degradation Maximum (%). How it is done: (§1) Procedure: A stable HeLa cell line expressing HiBiT-BRM was generated. On day 0, 5000 cells were seeded in 40 μL of media into each well of 384-well cell culture plates. On day 1, cells were treated with 120 nL DMSO or 120 nL of 3-fold serially DMSO-diluted compounds (10 points in duplicate with 30 μM as final top dose). Subsequently plates were incubated for 24 h in a standard tissue culture incubator and equilibrated at room temperature for 15 minutes. Nano-Glo HiBiT Lytic Detection System (Promega N3050) reagent was freshly prepared and 20 ul was added to each well. Upon addition of this LgBit-containing reagent, the HiBiT and LgBiT proteins associate to form the luminescent NanoBiT luciferase. The plates were shaken for 10 minutes at room temperature and the bioluminescence read using an EnVision plate reader (PerkinElmer).
For measurement of BRG1 degradation, a stable HeLa cell line expressing HiBit-BRG1 and LgBit was generated. The same protocol as above was then followed.
(§2) The degradation % was calculated using the following formula: % degradation=100%−100%×(Lumsample−LumLC)/(LumHC−LumLC). DMSO treated cells are employed as High Control (HC) and 2 μM of a known BRM/BRG1 degrader standard treated cells are employed as Low Control (LC).
For orientation: HiBiT is a short tag that completes a luciferase, so light tracks the accessible tagged protein.

Experiment [2] has as its target T2, HiBit-BRM fusion protein (Homo sapiens, UniProt P51531).
T2 construct: expressed in transfected cells
Description: HiBiT-BRM cell-based degradation assay (Nano-Glo HiBiT Lytic Detection, 24 h). Conditions: stable HeLa cell line expressing HiBiT-BRM, top dose 30 μM. As for the experimental part:
as §1, §2

T1 sequence (P51532 whole entry, the tested form may be a part): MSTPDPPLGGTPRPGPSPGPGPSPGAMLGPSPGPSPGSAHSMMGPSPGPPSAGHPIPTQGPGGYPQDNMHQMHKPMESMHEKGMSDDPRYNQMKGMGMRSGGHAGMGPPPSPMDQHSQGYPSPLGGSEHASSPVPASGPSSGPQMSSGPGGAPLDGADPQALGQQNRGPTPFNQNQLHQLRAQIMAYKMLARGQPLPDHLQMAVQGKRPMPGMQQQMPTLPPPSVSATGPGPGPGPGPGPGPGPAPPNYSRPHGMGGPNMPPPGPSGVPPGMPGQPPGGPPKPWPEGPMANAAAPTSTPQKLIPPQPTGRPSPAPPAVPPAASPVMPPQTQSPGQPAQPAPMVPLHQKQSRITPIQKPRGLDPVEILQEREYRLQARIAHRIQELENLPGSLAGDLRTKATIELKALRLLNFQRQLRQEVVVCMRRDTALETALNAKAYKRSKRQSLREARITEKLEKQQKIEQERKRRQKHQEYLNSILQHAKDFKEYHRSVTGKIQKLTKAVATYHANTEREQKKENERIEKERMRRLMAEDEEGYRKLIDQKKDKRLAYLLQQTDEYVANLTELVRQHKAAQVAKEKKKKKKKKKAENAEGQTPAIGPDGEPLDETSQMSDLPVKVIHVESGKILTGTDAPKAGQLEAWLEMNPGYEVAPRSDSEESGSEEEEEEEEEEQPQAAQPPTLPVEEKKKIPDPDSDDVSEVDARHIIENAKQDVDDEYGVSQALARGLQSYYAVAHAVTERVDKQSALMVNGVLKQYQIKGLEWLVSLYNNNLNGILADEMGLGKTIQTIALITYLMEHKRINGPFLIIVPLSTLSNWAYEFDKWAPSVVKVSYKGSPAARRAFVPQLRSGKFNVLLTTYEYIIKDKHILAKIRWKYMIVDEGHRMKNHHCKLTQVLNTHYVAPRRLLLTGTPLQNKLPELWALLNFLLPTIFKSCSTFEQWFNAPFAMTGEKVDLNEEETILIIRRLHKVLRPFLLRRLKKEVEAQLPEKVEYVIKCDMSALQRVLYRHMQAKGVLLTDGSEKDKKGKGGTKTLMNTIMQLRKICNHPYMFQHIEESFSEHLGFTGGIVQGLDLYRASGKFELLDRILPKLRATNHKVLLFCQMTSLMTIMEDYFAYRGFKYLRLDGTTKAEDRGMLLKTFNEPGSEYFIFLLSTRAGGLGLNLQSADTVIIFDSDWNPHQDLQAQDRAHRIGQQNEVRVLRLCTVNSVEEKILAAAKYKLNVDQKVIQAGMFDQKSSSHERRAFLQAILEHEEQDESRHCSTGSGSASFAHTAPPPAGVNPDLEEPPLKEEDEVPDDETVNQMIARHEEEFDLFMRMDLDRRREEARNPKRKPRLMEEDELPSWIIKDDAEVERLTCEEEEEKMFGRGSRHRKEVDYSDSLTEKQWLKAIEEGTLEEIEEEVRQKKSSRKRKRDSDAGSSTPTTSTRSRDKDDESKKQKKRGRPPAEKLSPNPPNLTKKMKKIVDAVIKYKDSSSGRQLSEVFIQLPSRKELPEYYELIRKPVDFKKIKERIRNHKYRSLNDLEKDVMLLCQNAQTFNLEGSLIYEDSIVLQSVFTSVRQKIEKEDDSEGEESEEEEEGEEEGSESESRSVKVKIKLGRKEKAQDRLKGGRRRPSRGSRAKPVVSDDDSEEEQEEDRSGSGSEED
T2 sequence (P51531 whole entry, the tested form may be a part): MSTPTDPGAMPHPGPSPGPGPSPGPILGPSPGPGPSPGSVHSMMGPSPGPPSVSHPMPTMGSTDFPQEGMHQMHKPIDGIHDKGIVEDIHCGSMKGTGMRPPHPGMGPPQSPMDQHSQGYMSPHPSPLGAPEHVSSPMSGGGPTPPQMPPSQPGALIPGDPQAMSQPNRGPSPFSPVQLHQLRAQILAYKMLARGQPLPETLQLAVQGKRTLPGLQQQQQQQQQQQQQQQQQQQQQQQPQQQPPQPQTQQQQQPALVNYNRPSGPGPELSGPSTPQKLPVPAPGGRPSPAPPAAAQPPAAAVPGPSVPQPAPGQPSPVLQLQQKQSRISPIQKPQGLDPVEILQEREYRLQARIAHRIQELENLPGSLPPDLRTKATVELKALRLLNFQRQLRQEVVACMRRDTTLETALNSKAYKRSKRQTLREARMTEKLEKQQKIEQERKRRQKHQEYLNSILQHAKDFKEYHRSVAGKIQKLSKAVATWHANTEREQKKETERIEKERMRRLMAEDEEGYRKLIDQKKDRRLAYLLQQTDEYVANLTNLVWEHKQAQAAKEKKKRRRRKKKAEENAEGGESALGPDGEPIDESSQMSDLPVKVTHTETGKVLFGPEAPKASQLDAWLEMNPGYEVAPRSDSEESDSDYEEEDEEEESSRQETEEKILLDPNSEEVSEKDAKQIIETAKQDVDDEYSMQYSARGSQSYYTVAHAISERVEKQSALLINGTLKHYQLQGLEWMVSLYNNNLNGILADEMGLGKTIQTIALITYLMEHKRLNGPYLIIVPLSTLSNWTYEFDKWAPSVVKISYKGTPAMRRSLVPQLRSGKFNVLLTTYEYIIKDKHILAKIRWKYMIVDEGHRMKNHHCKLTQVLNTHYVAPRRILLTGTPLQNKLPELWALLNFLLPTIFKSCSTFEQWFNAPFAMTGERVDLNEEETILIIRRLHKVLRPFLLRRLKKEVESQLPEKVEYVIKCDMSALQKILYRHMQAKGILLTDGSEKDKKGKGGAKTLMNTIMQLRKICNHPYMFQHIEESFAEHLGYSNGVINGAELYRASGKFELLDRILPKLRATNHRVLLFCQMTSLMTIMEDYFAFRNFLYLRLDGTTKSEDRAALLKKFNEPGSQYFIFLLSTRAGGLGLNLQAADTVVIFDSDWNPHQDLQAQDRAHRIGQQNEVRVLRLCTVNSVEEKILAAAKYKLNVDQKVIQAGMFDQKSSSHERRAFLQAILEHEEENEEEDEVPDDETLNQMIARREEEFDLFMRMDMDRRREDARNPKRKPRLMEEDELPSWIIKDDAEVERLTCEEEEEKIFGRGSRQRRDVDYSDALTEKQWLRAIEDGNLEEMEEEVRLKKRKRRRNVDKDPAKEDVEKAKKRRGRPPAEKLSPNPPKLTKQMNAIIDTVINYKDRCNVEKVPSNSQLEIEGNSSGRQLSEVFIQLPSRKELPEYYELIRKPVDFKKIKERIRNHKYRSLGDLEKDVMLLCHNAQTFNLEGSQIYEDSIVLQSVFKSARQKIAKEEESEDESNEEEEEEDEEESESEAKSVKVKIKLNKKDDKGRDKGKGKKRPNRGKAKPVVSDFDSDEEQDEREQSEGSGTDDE

Turning to `Nc1nnc(-c2ccccc2O)cc1OCC12CC(C(=O)NCCOCCOCCNC(=O)COc3ccc4c(c3)C(=O)N(C3CCC(=O)NC3=O)C4=O)(C1)C2` (stereo not drawn) [Compound 91, 3-(((3-amino-6-(2-hydroxyphenyl)pyridazin-4-yl)oxy)methyl)-N-(2-(2-(2-(2-((2-(2,6-dioxopiperidin-3-yl)-1,3-dioxoisoindolin-5-yl)oxy)acetamido)ethoxy)ethoxy)ethyl)bicyclo[1.1.1]pentane-1-carboxamide], the Dmax in experiment [1] was less than 50%. For the same molecule, the “BRM HiBit Degradation Maximum (%)” value in experiment [2] is “C (“C” indicates maximum degradation < 50%)”.
As for `Nc1nnc(-c2ccccc2O)cc1OCC12CC(C(=O)NCCOCc3cccc(COCCOc4cccc5c4C(=O)N(C4CCC(=O)NC4=O)C5=O)c3)(C1)C2` (stereo not drawn) [Compound 85, 3-(((3-amino-6-(2-hydroxyphenyl)pyridazin-4-yl)oxy)methyl)-N-(2-((3-((2-((2-(2,6-dioxopiperidin-3-yl)-1,3-dioxoisoindolin-4-yl)oxy)ethoxy)methyl)benzyl)oxy)ethyl)bicyclo[1.1.1]pentane-1-carboxamide], in experiment [1], the Dmax was less than 50%. Also, in experiment [2], the “BRM HiBit Degradation Maximum (%)” value is “C (“C” indicates maximum degradation < 50%)”.
Take `Cc1nc2cccc(NCCCCCCCCNC(=O)C34CC(COc5cc(-c6ccccc6O)nnc5N)(C3)C4)c2c(=O)n1C1CCC(=O)NC1=O` (stereo not drawn) [Compound 59, 3-(((3-amino-6-(2-hydroxyphenyl)pyridazin-4-yl)oxy)methyl)-N-(8-((3-(2,6-dioxopiperidin-3-yl)-2-methyl-4-oxo-3,4-dihydroquinazolin-5-yl)amino)octyl)bicyclo[1.1.1]pentane-1-carboxamide]: the Dmax in experiment [1] is less than 50%. In addition, the “BRM HiBit Degradation Maximum (%)” value in experiment [2] is “C (“C” indicates maximum degradation < 50%)”.
Regarding `Nc1nnc(-c2ccccc2O)cc1OCCC12CC(NC(=O)CCCCCCCCNc3cccc4c3C(=O)N(C3CCC(=O)NC3=O)C4=O)(C1)C2` (stereo not drawn) [Compound 23, N-[3-(2-[[3-amino-6-(2-hydroxyphenyl)pyridazin-4-yl]oxy]ethyl)bicyclo[1.1.1]pentan-1-yl]-9-[[2-(2,6-dioxopiperidin-3-yl)-1,3-dioxoisoindol-4-yl]amino]nonanamide], in experiment [1], the Dmax is less than 50%. Besides, the “BRM HiBit Degradation Maximum (%)” value in experiment [2] was “C (“C” indicates maximum degradation < 50%)”.
Turning to `Nc1nnc(-c2ccccc2O)cc1OCC12CC(C(=O)N3CC(COc4cccc5c4C(=O)N(C4CCC(=O)NC4=O)C5=O)C3)(C1)C2` (stereo not drawn) [Compound 87, 4-((1-(3-(((3-amino-6-(2-hydroxyphenyl)pyridazin-4-yl)oxy)methyl)bicyclo[1.1.1]pentane-1-carbonyl)azetidin-3-yl)methoxy)-2-(2,6-dioxopiperidin-3-yl)isoindoline-1,3-dione], the Dmax in experiment [1] was less than 50%. Moreover, in experiment [2], the “BRM HiBit Degradation Maximum (%)” value is listed as “C (“C” indicates maximum degradation < 50%)”.
Take `Nc1nnc(-c2ccccc2O)cc1OCC12CC(C(=O)N3CCC(CCN4CCN(c5ccc6c(c5)C(=O)N(C5CCC(=O)NC5=O)C6=O)CC4)CC3)(C1)C2` (stereo not drawn) [Compound 94, 5-(4-(2-(1-(3-(((3-amino-6-(2-hydroxyphenyl)pyridazin-4-yl)oxy)methyl)bicyclo[1.1.1]pentane-1-carbonyl)piperidin-4-yl)ethyl)piperazin-1-yl)-2-(2,6-dioxopiperidin-3-yl)isoindoline-1,3-dione]: the Dmax in experiment [1] was less than 50%. Besides, the “BRM HiBit Degradation Maximum (%)” value in experiment [2] is given as “B (“B” indicates maximum degradation ≥ 50%)”.
With `Nc1nnc(-c2ccccc2O)cc1OCC12CC(C(=O)NCCOc3cccc(OCCNc4ccc5c(c4)C(=O)N(C4CCC(=O)NC4=O)C5=O)c3)(C1)C2` (stereo not drawn) [Compound 82, 3-(((3-amino-6-(2-hydroxyphenyl)pyridazin-4-yl)oxy)methyl)-N-(2-(3-(2-((2-(2,6-dioxopiperidin-3-yl)-1,3-dioxoisoindolin-5-yl)amino)ethoxy)phenoxy)ethyl)bicyclo[1.1.1]pentane-1-carboxamide], the Dmax in experiment [1] was less than 50%. Further, the “BRM HiBit Degradation Maximum (%)” value in experiment [2] is reported as “C (“C” indicates maximum degradation < 50%)”.
On to `Nc1nnc(-c2ccccc2O)cc1OCC12CC(C(=O)N3CC(CCOc4cccc5c4C(=O)N(C4CCC(=O)NC4=O)C5=O)C3)(C1)C2` (stereo not drawn) [Compound 78, 4-(2-(1-(3-(((3-amino-6-(2-hydroxyphenyl)pyridazin-4-yl)oxy)methyl)bicyclo[1.1.1]pentane-1-carbonyl)azetidin-3-yl)ethoxy)-2-(2,6-dioxopiperidin-3-yl)isoindoline-1,3-dione], for which, in experiment [1], the Dmax was less than 50%. For the same molecule, in experiment [2], the “BRM HiBit Degradation Maximum (%)” value is “C (“C” indicates maximum degradation < 50%)”.
On the same counts, the results for `Cc1ncsc1-c1ccc(CNC(=O)[C@@H]2C[C@@H](O)CN2C(=O)[C@@H](NC(=O)COCCOCCOCCNC(=O)C23CC(COc4cc(-c5ccccc5O)nnc4N)(C2)C3)C(C)(C)C)cc1` [Compound 69, (2S,4R)-1-((S)-1-(3-(((3-amino-6-(2-hydroxyphenyl)pyridazin-4-yl)oxy)methyl)bicyclo[1.1.1]pentan-1-yl)-15-(tert-butyl)-1,13-dioxo-5,8,11-trioxa-2,14-diazahexadecan-16-oyl)-4-hydroxy-N-(4-(4-methylthiazol-5-yl)benzyl)pyrrolidine-2-carboxamide] are less than 50% and “C (“C” indicates maximum degradation < 50%)”.
In the case of `Cc1ncsc1-c1ccc(CNC(=O)[C@@H]2C[C@@H](O)CN2C(=O)[C@@H](NC(=O)CCCCC(=O)NC23CC(CCOc4cc(-c5ccccc5O)nnc4N)(C2)C3)C(C)(C)C)cc1` [Compound 43, N1-(3-(2-((3-amino-6-(2-hydroxyphenyl)pyridazin-4-yl)oxy)ethyl)bicyclo[1.1.1]pentan-1-yl)-N6-((S)-1-((2S,4R)-4-hydroxy-2-((4-(4-methylthiazol-5-yl)benzyl)carbamoyl)pyrrolidin-1-yl)-3,3-dimethyl-1-oxobutan-2-yl)adipamide], the Dmax in experiment [1] was more than 75%. For the same molecule, the “BRM HiBit Degradation Maximum (%)” value in experiment [2] was “A (“A” indicates maximum degradation ≥ 75%)”.
With `Nc1nnc(-c2ccccc2O)cc1OCC12CC(CNC(=O)CCCCCCCCCCNc3ccc4c(c3)C(=O)N(C3CCC(=O)NC3=O)C4=O)(C1)C2` (stereo not drawn) [Compound 10, N-[[3-([[3-amino-6-(2-hydroxyphenyl)pyridazin-4-yl]oxy]methyl)bicyclo[1.1.1]pentan-1-yl]methyl]-11-[[2-(2,6-dioxopiperidin-3-yl)-1,3-dioxoisoindol-5-yl]amino]undecanamide], the Dmax in experiment [1] is less than 50%. Moreover, the “BRM HiBit Degradation Maximum (%)” value in experiment [2] is on record as “C (“C” indicates maximum degradation < 50%)”.
In the same order, the values of `Nc1nnc(-c2ccccc2O)cc1OCC12CC(C(=O)N3CC(COc4ccc5c(c4)C(=O)N(C4CCC(=O)NC4=O)C5=O)C3)(C1)C2` (stereo not drawn) [Compound 86, 5-((1-(3-(((3-amino-6-(2-hydroxyphenyl)pyridazin-4-yl)oxy)methyl)bicyclo[1.1.1]pentane-1-carbonyl)azetidin-3-yl)methoxy)-2-(2,6-dioxopiperidin-3-yl)isoindoline-1,3-dione] are more than 50% and “B (“B” indicates maximum degradation ≥ 50%)”.
